Data: patent publication US20100093861A1, “TREATMENT OF INSULIN RESISTANCE OR DISEASES ASSOCIATED WITH INSULIN RESISTANCE” (Stevia ApS, priority 2006, published 2010)

Key:
Akt1 = assay: Affymetrix gene chip analysis of KKAy islets: Akt1; format: in vivo, mice; conditions: ISV vs. KKAy control islets, 9 weeks
Method: (§1) cRNA preparation and in vitro transcription: In total 6 Affymetrix arrays MOE430 2.0 probe array cartridge were used i.e. for analysis of 3 replicas for the KKAy control group and the ISV group, respectively. Each of the 6 samples consisted of pooled RNA from 3-4 KKAy mice. Preparation of target for hybridization was prepared from 340 ng of total RNA using MessageAmp™ II aRNA Amplification Kits (Ambion), according to the manufacturers instructions. Arrays were hybridised and scanned as described elsewhere (Kruhoffer et al., 2005).

C/EBPalpha = assay: Relative real time RT-PCR in islets of KKAy mice (Example 3): C/EBPalpha; format: in vivo; conditions: 9 weeks
Method: (§2) Islets were isolated by the collagenase digestion technique. In brief, the animals were anesthetized with pentobarbital (50 mg/kg intraperitoneally) and midline laparotomy was performed. The pancreas was retrogradely filled with 3 mL ice-cold Hanks balanced salt solution (([HBSS] Sigma Chemical, St Louis, Mo.) supplemented with 0.3 mg/ml collagenase Boehringer Mannheim GmbH, Germany). The pancreas was subsequently removed and incubated for 19 minutes at 37° C. After rinsing in HBSS, the islets were handpicked under a stereomicroscope and immediately transferred to a tubes containing 1 ml Trizol (Gibco/Invitrogene, Calsbad, Calif., USA). The islets isolated from the NMRI mice were incubated overnight at 37° C. and 95% normal atmosphere/5% CO2 in 10 ml RPMI 1640 containing 11.1 mmol/L glucose supplemented with penicillin G and 100 μg/mL streptomycin (all Gibco/Invitrogene, Calsbad, Calif., USA).
(§3) For each group, islets from 3-4 mice (180-200 islets) were pooled in 1 ml Trizol reagent (Gibco/lnvitrogene, Calsbad, Calif., USA) before RNA purification. Total RNA was extracted according to the manufactures' instructions. RNA was quantified by measuring absorbance at 260 and 280 nm. The quality of the RNA was checked by the Agilent 2100 bioanalyzer (Agilent, Santa Clara, USA). […]

Nkx6-1 = assay: Affymetrix gene chip analysis of KKAy islets: Nkx6-1; format: in vivo, mice; conditions: ISV vs. KKAy control islets, 9 weeks
Method: as §1

C/EBP-alpha = assay: Gene expression in islets from diabetic KKAy-mice, real time RT-PCR (Example 2): C/EBP-alpha; format: in vivo; conditions: islets of KKAy-mice after nine weeks treatment, normalized to 18S rRNA
Method: (§4) A the end of the nine week period of the in vivo study in example 1 RNA was purified from Islets, muscle, liver and fat from the three experimental groups, using standard techniques as described in Kiergen, RNA easy.
(§5) Gene expression of PDX-1, IRS1, Beta2, 11beta-HSD-1, Akt1, C/EBP-alpha, CPT1, GLUT2, IGF1, IR and Ins1 was measured with Real time RT-PCR using Taq Man Assays normalized to 18S rRNA, using the standard protocol (ABI, USA). All reagents were obtained from (ABI, USA). All probes are standard probes obtainable from ABI, USA, under the specific probe code number, given in respect of each gene.

[1] = system: isolated NMRI mice islets; assay: Glucose stimulated insulin secretion (GSIS) from isolated NMRI mice islets; format: cell-based
Method: For in vitro studies with steviol and ISV, we included adult female NMRI mice (Taconic, Ry Denmark), all weighing 22-25 g. We used 12 hours light/dark cycle. The Danish Council for Animal experiments has approved the study.
as §2
The NMRI female mice islets were rinsed twice with a modified Krebs-Ringer buffer (KRB) supplemented with 3.3 mmol/L glucose and 0.1% human serum albumin (Sigma). The KRB contained 125 mmol/L NaCl, 5.9 mmol/L KCl, 1.2 MgCl, 1.28 CaCl2 and 25 mmol/L HEPES (Ph 7.4: all Sigma). Single islets were incubated in 100 μL KRB containing glucose (3.3 and 16.7 mmol/L) and steviol/ISV according to the protocols (Jeppesen et al., 2000). After incubation (60 min), 50 μL of the medium was frozen for RIA analysis of insulin.

Beta2/neuroD = assay: Affymetrix gene chip analysis of KKAy islets: Beta2/neuroD; format: in vivo, mice; conditions: ISV vs. KKAy control islets, 9 weeks
Method: as §1

GLUT-2 = assay: Gene expression in islets from diabetic KKAy-mice, real time RT-PCR (Example 2): GLUT-2; format: in vivo; conditions: islets of KKAy-mice after nine weeks treatment, normalized to 18S rRNA
Method: as §4, §5

11-beta-HSD-1 = assay: Relative real time RT-PCR in islets of KKAy mice (Example 3): 11-beta-HSD-1; format: in vivo; conditions: 9 weeks
Method: as §2, §3

Beta2 = assay: Gene expression in islets from diabetic KKAy-mice, real time RT-PCR (Example 2): Beta2; format: in vivo; conditions: islets of KKAy-mice after nine weeks treatment, normalized to 18S rRNA
Method: as §4, §5

InsII = assay: Affymetrix gene chip analysis of KKAy islets: InsII; format: in vivo, mice; conditions: ISV vs. KKAy control islets, 9 weeks
Method: as §1

C[C@@]12CC[C@@H]3[C@@](CC[C@H]4[C@@]3(C)CCC[C@@]4(C)C(=O)O)(CC1=O)C2 (single isomer, unassigned; ent-16) [ISV, ent-16-ketobeyeran-19-oic acid]
array: change of Akt1 expression (Akt1): no changes | reduction of C/EBP-alpha mRNA expression (C/EBPalpha; RT-PCR): 2 fold | decreased expression of C/EBPalpha, ISV group vs. control group (C/EBPalpha; normalized to 18S rRNA): 49% | array: increased expression in Nkx6-1 (Nkx6-1): 2.64 fold | decreased expression of C/EBPα compared to standard diet (C/EBP-alpha): 49% | effect on insulin secretion at low glucose ([1]; 3.3 mmol/L glucose, 60 min incubation): did not potentiate the insulin secretion | concentration giving apparent maximal effect on glucose stimulated insulin secretion ([1]; 16.7 mmol/L glucose, 60 min incubation): approx. 10^−8 mol/l | potency on GSIS, isosteviol compared with steviol, at higher concentration ([1]; 10^−8 mol/l-10^−6 mol/l, 16.7 mmol/l glucose, 60 minutes): not found any significant difference | potency on GSIS, isosteviol compared with steviol, at low concentration ([1]; 10^−10 mol/l, 16.7 mmol/l glucose, 60 minutes): significantly more potent than steviol | effect on insulin secretion stimulated by 16.7 mmol/L glucose ([1]; ISV 10^−12 mol/l-10^−8 mol/l, 60 min incubation): potentiated insulin secretion | array: change of Beta2/neuroD expression (Beta2/neuroD): upregulation | increased expression of GLUT-2 compared to standard diet (GLUT-2): 60% | down regulation of 11-beta-HSD-1 (11-beta-HSD-1; RT-PCR): 2.5 fold | decreased expression of 11-beta-HSD-1, ISV group vs. control group (11-beta-HSD-1; normalized to 18S rRNA): 61% | increased expression of beta2 compared to standard diet (Beta2): 60% | array: change of InsII expression (InsII): no changes
